Test results reported in patent US20130012506A1 (priority 2010, published 2013).
Values after ≈ are worked out from the molar mass of the structure shown. Like-named read-outs stand apart in the source and are kept apart here.

Experiments:
[1] = system: M. tuberculosis H37Rv-GFP inside Raw264.7 macrophages
[2] = system: M. tuberculosis H37Rv-GFP; assay: microbe, parasite or virus in culture; conditions: Mycobacterium tuberculosis, read-out: minimal inhibitory concentration (MIC)
[3] = system: M. tuberculosis H37Rv-GFP inside Raw264.7 macrophages; assay: microbe, parasite or virus in culture; conditions: Mycobacterium tuberculosis, 120 h, read-out: minimal inhibitory concentration (MIC)
M. tuberculosis H37Rv [4] = assay: Bacteria killing activity by CFU counting, aerobic incubation; format: cell-based, Mycobacterium tuberculosis
Experimental: FIG. 8 illustrates the colony forming units (CFUs) recovered from macrophages at different time points after infection with M. tuberculosis H37Rv. Cells were infected and treated with the indicated amount of pyridopyrimidione compound 71 (4 to 20 μM);
The bacteria killing activity of compound 71 was determined using the CFU counting method. Two-fold serial dilutions of compound 71 were incubated aerobically with H37Rv for 21 days at 37° C.

BJ- Skin = assay: Cytotoxicity assay (resazurin, 5 days); format: cell-based
Experimental: (§1) In order to address compound toxicity, seven cell lines originating from different body tissues were cultivated in the presence of 3-fold dilutions of compounds starting from 100 μM. After 5 days of culture, cell viability was assessed by the resazurin test. Briefly, cells were incubated with 10 μg/mL of resazurin (Sigma-Aldrich St. Louis, Mo.) for 4 h at 37° C. under 5% CO2. Resofurin fluorescence (RFU) was measured as indicated above. Percentage of toxicity on cells was calculated as follows: Cytotoxicity (%)=(RFUDMSO−RFUBlank)−(RFUcompound−RFUblank)/(RFUDMSO−RFUBlank)×100. Percentage of cytotoxicity was plotted against compound concentration and the minimal toxic concentration (MTC50) was determined by non-linear regression analysis as the lowest compound concentration where fifty percent toxicity was observed on the corresponding cell line.
(§2) To address the issue of toxicity, compound 133 was tested on a panel of seven cell lines derived from different body tissue. Cells were incubated with increasing amounts of compound and cell viability was assessed with resazurin after 5 days of co-incubation. Percentage of cytotoxicity was determined by taking as a reference the resofurin fluorescence measured by DMSO containing wells. The concentration where fifty percent of the cells died was defined as the Minimal Toxic Concentration (MTC50).

HEK293- Kidney = assay: Cytotoxicity assay (resazurin, 5 days); format: cell-based; conditions: HEK293, 5 days
Experimental: as §1, §2

HepG2-Hepatocytes = assay: Cytotoxicity assay (resazurin, 5 days); format: cell-based; conditions: HepG2, 5 days
Experimental: as §1, §2

Jurkat -T-cell = assay: Cytotoxicity assay (resazurin, 5 days); format: cell-based
Experimental: as §1, §2

MRC5- Lung = assay: Cytotoxicity assay (resazurin, 5 days); format: cell-based; conditions: MRC5, 5 days
Experimental: as §1, §2

SK-N-SH -Brain = assay: Cytotoxicity assay (resazurin, 5 days); format: cell-based
Experimental: as §1, §2

THP-1 - Monocytes = assay: Cytotoxicity assay (resazurin, 5 days); format: cell-based; conditions: THP-1, 5 days
Experimental: as §1, §2

[5] = system: seven cell lines derived from different body tissue; assay: Cytotoxicity assay on a panel of seven cell lines; format: cell-based; conditions: all tested cell lines, 5 days of co-incubation
Experimental: as §1, §2

[6] = system: M. tuberculosis clinical isolates; format: cell-based, Mycobacterium tuberculosis
M. tuberculosis H37Rv [7] = assay: MIC on laboratory strain, in vitro bacterial growth assay; format: cell-based; conditions: Mycobacterium tuberculosis
M. tuberculosis H37Ra = assay: as above; format: cell-based; conditions: Mycobacterium tuberculosis
BCG Pasteur-Tokyo = assay: microbe, parasite or virus in culture; format: cell-based; conditions: Mycobacterium tuberculosis variant bovis BCG
M. smegmatis mc^2 155 = assay: MIC on fast growing mycobacteria; format: cell-based, Mycobacterium smegmatis
[8] = system: Acinetobacter baumannii, Escherichia coli, Enterobacter cloacae, E. aerogenes, Klebsiella oxytoca, Pseudomonas aeruginosa, Salmonella enteridis, Vibrio mimicus; assay: Antimicrobial spectrum on clinical isolates, Gram-negative; format: cell-based, Gram-negative bacteria
[9] = system: Staphylococcus aureus, S. epidermis, S. capitis, S. xylosus, Micrococcus luteus, Listeria innocua, Lactobacillus gallinarum, group G Streptococcus …; assay: Antimicrobial spectrum on clinical isolates, Gram-positive; format: cell-based, Gram-positive bacteria
C. striatum, C. jeikeium = assay: Antimicrobial spectrum on clinical isolates, Corynebacterium; format: cell-based
[10] = system: Candida albicans, C. glabrata, C. parapsilosis; assay: Antimicrobial spectrum on clinical isolates, Fungi; format: cell-based
[11] = system: M. tuberculosis H37Rv in mouse macrophages; assay: CFU determination in infected mouse macrophages; format: cell-based, Mycobacterium tuberculosis; conditions: mouse cells, seven days after infection
[12] = system: M. tuberculosis H37Rv in human macrophages; format: cell-based, Mycobacterium tuberculosis
[13] = system: M. tuberculosis H37Rv-GFP; assay: in vitro; conditions: Mycobacterium tuberculosis
[14] = system: M. tuberculosis H37Rv-GFP inside Raw264.7 macrophages; assay: in vitro; conditions: mouse
Primary BMDM = assay: Cytotoxicity assay (resazurin, 5 days)
[15] = system: Primary human macrophages; assay: Cytotoxicity assay (resazurin, 5 days)
[16] = system: M. tuberculosis in primary macrophages; format: cell-based, Mycobacterium tuberculosis

## CNC(=O)c1c(Nc2ccc(F)c(Cl)c2)nc2c(OC)cccn2c1=O
other
  melting point: 218 °C (dec.)

## COc1cccn2c(=O)c(CO)c(Nc3ccc(F)c(F)c3)nc12
other
  melting point: 231 °C (dec.)

## Cn1cnc2ccc(Nc3nc4c(F)cccn4c(=O)c3CO)cc21
other
  melting point: 209 °C (dec.)

## COc1cccn2c(=O)c(Br)c(Nc3ccc4ncccc4c3)nc12
other
  melting point: 248 to 249 °C

## COC(=O)c1ccc(Nc2nc3c(OC)cccn3c(=O)c2CO)nc1
other
  melting point: 231 to 232 °C (dec.)

## NNC(=O)c1ccncc1 [INH, isoniazid]
[1]
  Calculated MICs from the image based quantification of the infection ratio: 0.16 ± 0.05 µg/mL
  cells that appear to be infected: 10%
[2]
  MIC: 0.1 µg/mL (≈ 0.729 µM)
[3]
  MIC: 0.1 µg/mL (≈ 0.729 µM)

## COc1cccn2c(=O)c(CO)c(Nc3ccc4ncccc4c3)nc12 [compound 71, 3-(Hydroxymethyl)-9-methoxy-2-(quinolin-6-ylamino)-4H-pyrido[1,2-a]pyrimidin-4-one]
M. tuberculosis H37Rv [4]; 0.04 to 20 μM, H37Rv, 21 days at 37° C.
  growth of M. tuberculosis (CFU): strongly inhibited the growth of M. tuberculosis
M. tuberculosis H37Rv [4]; after 2 days of incubation
  bacteria killing activity (CFU): fast bacteria killing activity even at the lowest concentration

## Cc1cccn2c(=O)c(C=O)c(Nc3cccc(Cl)c3)nc12 [compound 133, 2-(3-Chlorophenylamino)-9-methyl-4-oxo-4H-pyrido[1,2-a]pyrimidine-3-carbaldehyde]
BJ- Skin
  Range of MTC50: >100 µM
HEK293- Kidney
  Range of MTC50: >100 µM
HepG2-Hepatocytes
  Range of MTC50: >100 µM
Jurkat -T-cell
  Range of MTC50: >100 µM
MRC5- Lung
  Range of MTC50: >100 µM
SK-N-SH -Brain
  Range of MTC50: >100 µM
THP-1 - Monocytes
  Range of MTC50: >100 µM
[5]
  cytotoxicity (Minimal Toxic Concentration, MTC50): > 100 µM
[6]; Drug Sensitive, Tissue, 2 isolates
  Range of MICs for multiple strains (μM): 2.5-5^ μM
[6]; INH^R RIF^R Strep^R, Sputum, 3 isolates
  Range of MICs for multiple strains: 0.3 to 1.2 µM
[6]; INH^R RIF^R Strep^R, Tissue, 1 isolate
  Range of MICs for multiple strains: 1.2 µM
[6]; MDR, Sputum, 3 isolates
  Range of MICs for multiple strains: 0.3 to 1.2 µM
[6]; MDR, Tissue, 1 isolate
  Range of MICs for multiple strains: 1.2 µM
[6]; RIF^R, Sputum, 1 isolate
  Range of MICs for multiple strains: 2.5 µM
[6]; RIF^R, Tissue, 1 isolate
  Range of MICs for multiple strains: 1.2 µM
[6]; XDR, Sputum, 4 isolates
  Range of MICs for multiple strains: 0.6 to 2.5 µM
[6]; XDR, Tissue, 5 isolates
  Range of MICs for multiple strains (μM): 0.3-5^ μM
M. tuberculosis H37Rv [7]
  MIC: 2 µM (≈ 0.627 µg/mL)
M. tuberculosis H37Ra
  MIC: 2 µM (≈ 0.627 µg/mL)
BCG Pasteur-Tokyo
  MIC: 2 µM (≈ 0.627 µg/mL)
M. smegmatis mc^2 155
  MIC: no effect
M. smegmatis mc^2 155; Mycolicibacterium smegmatis, MC^2155, read-out: MIC
  MIC: > 100 µM
[8]
  Antibacterial activity & Specificity: NE (NE: No effect up to 100 μg/mL equivalent to 320 μM)
[9]
  Antibacterial activity & Specificity: NE (NE: No effect up to 100 μg/mL equivalent to 320 μM)
C. striatum, C. jeikeium
  Antibacterial activity & Specificity: NE (NE: No effect up to 100 μg/mL equivalent to 320 μM)
[10]
  Antibacterial activity & Specificity: NE (NE: No effect up to 100 μg/mL equivalent to 320 μM)
[11]
  decrease in the number of CFUs: ten-fold decrease in the number of CFUs
[12]
  decrease in the number of CFUs: ten-fold decrease in the number of CFUs
[13]
  selectivity ratio: > 50
[14]
  selectivity ratio: > 50
Primary BMDM
  Range of MTC50: >100 µM
[15]
  Range of MTC50: >100 µM

## Cc1cccn2c(=O)c(CO)c(Nc3cccc(Cl)c3)nc12 [compound 232, 2-(3-Chlorophenylamino)-3-(hydroxymethyl)-9-methyl-4H-pyrido[1,2-a]pyrimidin-4-one]
[11]
  decrease in the number of CFUs: ten-fold decrease in the number of CFUs
[12]
  decrease in the number of CFUs: ten-fold decrease in the number of CFUs
[16]
  bacterial load and host cell abundance: harbored fewer bacteria compared to DMSO control and were more abundant

## CO[C@H]1/C=C/O[C@@]2(C)Oc3c(C)c(O)c4c(O)c(c(/C=N/N5CCN(C)CC5)c(O)c4c3C2=O)NC(=O)/C(C)=C\C=C\[C@H](C)[C@H](O)[C@@H](C)[C@@H](O)[C@@H](C)[C@H](OC(C)=O)[C@@H]1C [rifampin]
[1]
  Calculated MICs from the image based quantification of the infection ratio: 2.4 ± 1.3 µg/mL
  cells that appear to be infected: 10%
